PubChem BioAssay AID2060627 (Molecular Pharmacology Branch, DTP, NCI, 2025)
pIC50: −log10 of the molar value.

System: 156681-154-R-J1-PDC complex spheroid viability
Assay: Anticancer human tumor 156681-154-R-J1-PDC patient-derived melanoma cell line growth inhibition [CLK]
Details: for pIC50: curve of first compound; for viability, T/C: stronger effect = lower value
Procedure, shortened: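 Multi-cell-type spheroids combined patient-derived tumor cells with HUVEC endothelial cells and human mesenchymal stem cells. Paired agents were dosed in half-log steps down from about clinical Cmax, or from 10 microM where Cmax was unknown.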

[1] = second compound 0.0316 µM, first compound 0.0316 µM
[2] = second compound 0.0316 µM, first compound 0.1 µM
[3] = second compound 0.0316 µM, first compound 0.316 µM
[4] = second compound 0.0316 µM, first compound 1 µM
[5] = second compound 0.0316 µM, first compound 3.16 µM
[6] = second compound 0.0316 µM, first compound 10 µM
[7] = second compound 0.1 µM, first compound 0.0316 µM
[8] = second compound 0.1 µM, first compound 0.1 µM
[9] = second compound 0.1 µM, first compound 0.316 µM
[10] = second compound 0.1 µM, first compound 1 µM
[11] = second compound 0.1 µM, first compound 3.16 µM
[12] = second compound 0.1 µM, first compound 10 µM
[13] = second compound 0.316 µM, first compound 0.0316 µM
[14] = second compound 0.316 µM, first compound 0.1 µM
[15] = second compound 0.316 µM, first compound 0.316 µM
[16] = second compound 0.316 µM, first compound 1 µM
[17] = second compound 0.316 µM, first compound 3.16 µM
[18] = second compound 0.316 µM, first compound 10 µM
[19] = second compound 1 µM, first compound 0.0316 µM
[20] = second compound 1 µM, first compound 0.1 µM
[21] = second compound 1 µM, first compound 0.316 µM
[22] = second compound 1 µM, first compound 1 µM
[23] = second compound 1 µM, first compound 3.16 µM
[24] = second compound 1 µM, first compound 10 µM
[25] = second compound 3.16 µM, first compound 0.0316 µM
[26] = second compound 3.16 µM, first compound 0.1 µM
[27] = second compound 3.16 µM, first compound 0.316 µM
[28] = second compound 3.16 µM, first compound 1 µM
[29] = second compound 3.16 µM, first compound 3.16 µM
[30] = second compound 3.16 µM, first compound 10 µM
[31] = second compound 10 µM, first compound 0.0316 µM
[32] = second compound 10 µM, first compound 0.1 µM
[33] = second compound 10 µM, first compound 0.316 µM
[34] = second compound 10 µM, first compound 1 µM
[35] = second compound 10 µM, first compound 3.16 µM
[36] = second compound 10 µM, first compound 10 µM
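Further: spheroids exposed to the agents for seven days.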
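Wherever viability, T/C is given: 100% = DMSO vehicle control viability.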

SMILES: CC(C)CC(NC(=O)C(Cc1ccccc1)NC(=O)c1cnccn1)B(O)O (stereo not drawn) + CNC(=O)c1ccc(Nc2nc(OC3CCCC3)c3c(-c4ccc5nc(C)oc5c4)c[nH]c3n2)c(OC)c1
- pIC50 (second compound 0.0316 µM): > 9.02
- pIC50 (second compound 0.1 µM): > 9.02
- pIC50 (second compound 0.316 µM): > 9.02
- pIC50 (second compound 1 µM): > 9.02
- pIC50 (second compound 3.16 µM): > 9.02
- pIC50 (second compound 10 µM): > 9.02
- viability, T/C (second compound 0.0316 µM, first compound 0.000949 µM): 9.11%
- viability, T/C (second compound 0.0316 µM, first compound 0.003 µM): 2.74%
- viability, T/C (second compound 0.0316 µM, first compound 0.00949 µM): 0.21%
- viability, T/C (second compound 0.0316 µM, first compound 0.03 µM): 0.23%
- viability, T/C (second compound 0.0316 µM, first compound 0.0949 µM): 0.18%
- viability, T/C (second compound 0.0316 µM, first compound 0.3 µM): 1.15%
- viability, T/C (second compound 0.1 µM, first compound 0.000949 µM): 15.1%
- viability, T/C (second compound 0.1 µM, first compound 0.003 µM): 0.3%
- viability, T/C (second compound 0.1 µM, first compound 0.00949 µM): 0.24%
- viability, T/C (second compound 0.1 µM, first compound 0.03 µM): 0.21%
- viability, T/C (second compound 0.1 µM, first compound 0.0949 µM): 0.18%
- viability, T/C (second compound 0.1 µM, first compound 0.3 µM): 1.03%
- viability, T/C (second compound 0.316 µM, first compound 0.000949 µM): 16.6%
- viability, T/C (second compound 0.316 µM, first compound 0.003 µM): 0.88%
- viability, T/C (second compound 0.316 µM, first compound 0.00949 µM): 0.24%
- viability, T/C (second compound 0.316 µM, first compound 0.03 µM): 0.19%
- viability, T/C (second compound 0.316 µM, first compound 0.0949 µM): 0.15%
- viability, T/C (second compound 0.316 µM, first compound 0.3 µM): 0.15%
- viability, T/C (second compound 1 µM, first compound 0.000949 µM): 15.8%
- viability, T/C (second compound 1 µM, first compound 0.003 µM): 0.29%
- viability, T/C (second compound 1 µM, first compound 0.00949 µM): 1.19%
- viability, T/C (second compound 1 µM, first compound 0.03 µM): 0.21%
- viability, T/C (second compound 1 µM, first compound 0.0949 µM): 0.19%
- viability, T/C (second compound 1 µM, first compound 0.3 µM): 1.63%
- viability, T/C (second compound 3.16 µM, first compound 0.000949 µM): 14.2%
- viability, T/C (second compound 3.16 µM, first compound 0.003 µM): 1%
- viability, T/C (second compound 3.16 µM, first compound 0.00949 µM): 1.37%
- viability, T/C (second compound 3.16 µM, first compound 0.03 µM): 0.21%
- viability, T/C (second compound 3.16 µM, first compound 0.0949 µM): 0.2%
- viability, T/C (second compound 3.16 µM, first compound 0.3 µM): 0.39%
- viability, T/C (second compound 10 µM, first compound 0.000949 µM): 14.7%
- viability, T/C (second compound 10 µM, first compound 0.003 µM): 1.3%
- viability, T/C (second compound 10 µM, first compound 0.00949 µM): 0.27%
- viability, T/C (second compound 10 µM, first compound 0.03 µM): 0.31%
- viability, T/C (second compound 10 µM, first compound 0.0949 µM): 0.26%
- viability, T/C (second compound 10 µM, first compound 0.3 µM): 0.15%

SMILES: CC1(C)CCC(CN2CCN(c3ccc(C(=O)NS(=O)(=O)c4ccc(NCC5CCOCC5)c([N+](=O)[O-])c4)c(Oc4cnc5[nH]ccc5c4)c3)CC2)=C(c2ccc(Cl)cc2)C1 + CNC(=O)c1ccc(Nc2nc(OC3CCCC3)c3c(-c4ccc5nc(C)oc5c4)c[nH]c3n2)c(OC)c1
- pIC50 (second compound 0.0316 µM): 5.30
- pIC50 (second compound 0.1 µM): 5.38
- pIC50 (second compound 0.316 µM): 5.49
- pIC50 (second compound 1 µM): 5.73
- pIC50 (second compound 3.16 µM): > 7.50
- pIC50 (second compound 10 µM): > 7.50
- viability, T/C [1]: 92.9%
- viability, T/C [2]: 101%
- viability, T/C [3]: 103%
- viability, T/C [4]: 96.8%
- viability, T/C [5]: 83%
- viability, T/C [6]: 1.52%
- viability, T/C [7]: 66.6%
- viability, T/C [8]: 80%
- viability, T/C [9]: 82%
- viability, T/C [10]: 70.4%
- viability, T/C [11]: 65.8%
- viability, T/C [12]: 0.92%
- viability, T/C [13]: 67.1%
- viability, T/C [14]: 72.9%
- viability, T/C [15]: 65.2%
- viability, T/C [16]: 74.1%
- viability, T/C [17]: 51.2%
- viability, T/C [18]: 0.88%
- viability, T/C [19]: 59.7%
- viability, T/C [20]: 62.7%
- viability, T/C [21]: 46.6%
- viability, T/C [22]: 57%
- viability, T/C [23]: 44.8%
- viability, T/C [24]: 2.29%
- viability, T/C [25]: 42.6%
- viability, T/C [26]: 37.8%
- viability, T/C [27]: 36.2%
- viability, T/C [28]: 50.4%
- viability, T/C [29]: 32.1%
- viability, T/C [30]: 1.28%
- viability, T/C [31]: 46.6%
- viability, T/C [32]: 34.7%
- viability, T/C [33]: 39.9%
- viability, T/C [34]: 41.4%
- viability, T/C [35]: 30.2%
- viability, T/C [36]: 0.58%

SMILES: CC1COCCN1c1cc(C2(S(C)(=N)=O)CC2)nc(-c2ccnc3[nH]ccc23)n1 (stereo not drawn) + CNC(=O)c1ccc(Nc2nc(OC3CCCC3)c3c(-c4ccc5nc(C)oc5c4)c[nH]c3n2)c(OC)c1
- pIC50 (second compound 0.0316 µM): 5.85
- pIC50 (second compound 0.1 µM): 6.07
- pIC50 (second compound 0.316 µM): 6.12
- pIC50 (second compound 1 µM): 6.22
- pIC50 (second compound 3.16 µM): 6.78
- pIC50 (second compound 10 µM): 7.37
- viability, T/C [1]: 102%
- viability, T/C [2]: 110%
- viability, T/C [3]: 86.5%
- viability, T/C [4]: 61%
- viability, T/C [5]: 27.7%
- viability, T/C [6]: 14.3%
- viability, T/C [7]: 60%
- viability, T/C [8]: 76.3%
- viability, T/C [9]: 71.9%
- viability, T/C [10]: 45.1%
- viability, T/C [11]: 23.3%
- viability, T/C [12]: 13.1%
- viability, T/C [13]: 68.1%
- viability, T/C [14]: 70.3%
- viability, T/C [15]: 66.6%
- viability, T/C [16]: 44.2%
- viability, T/C [17]: 24.8%
- viability, T/C [18]: 17.8%
- viability, T/C [19]: 63.4%
- viability, T/C [20]: 55.5%
- viability, T/C [21]: 54.7%
- viability, T/C [22]: 45.4%
- viability, T/C [23]: 16%
- viability, T/C [24]: 7.92%
- viability, T/C [25]: 61.8%
- viability, T/C [26]: 49.1%
- viability, T/C [27]: 42.9%
- viability, T/C [28]: 43.4%
- viability, T/C [29]: 14.4%
- viability, T/C [30]: 8.47%
- viability, T/C [31]: 51.5%
- viability, T/C [32]: 47.3%
- viability, T/C [33]: 30.1%
- viability, T/C [34]: 30.7%
- viability, T/C [35]: 15.5%
- viability, T/C [36]: 7.43%

SMILES: O=C(c1cc(Cc2n[nH]c(=O)c3ccccc23)ccc1F)N1CCN(C(=O)C2CC2)CC1 + CNC(=O)c1ccc(Nc2nc(OC3CCCC3)c3c(-c4ccc5nc(C)oc5c4)c[nH]c3n2)c(OC)c1
- pIC50 (second compound 0.0316 µM): < 5.00
- pIC50 (second compound 0.1 µM): < 5.00
- pIC50 (second compound 0.316 µM): < 5.00
- pIC50 (second compound 1 µM): 6.32
- pIC50 (second compound 3.16 µM): > 7.50
- pIC50 (second compound 10 µM): > 7.50
- viability, T/C [1]: 98.2%
- viability, T/C [2]: 108%
- viability, T/C [3]: 92.3%
- viability, T/C [4]: 103%
- viability, T/C [5]: 92.5%
- viability, T/C [6]: 79.3%
- viability, T/C [7]: 65.4%
- viability, T/C [8]: 72.5%
- viability, T/C [9]: 65.4%
- viability, T/C [10]: 80.9%
- viability, T/C [11]: 82.8%
- viability, T/C [12]: 60.5%
- viability, T/C [13]: 78.9%
- viability, T/C [14]: 69.3%
- viability, T/C [15]: 76.3%
- viability, T/C [16]: 71%
- viability, T/C [17]: 70.3%
- viability, T/C [18]: 54.3%
- viability, T/C [19]: 59.7%
- viability, T/C [20]: 48.5%
- viability, T/C [21]: 48.9%
- viability, T/C [22]: 47.9%
- viability, T/C [23]: 42.8%
- viability, T/C [24]: 25.8%
- viability, T/C [25]: 47.8%
- viability, T/C [26]: 48.2%
- viability, T/C [27]: 47.9%
- viability, T/C [28]: 45.2%
- viability, T/C [29]: 35.2%
- viability, T/C [30]: 20.2%
- viability, T/C [31]: 50.6%
- viability, T/C [32]: 37%
- viability, T/C [33]: 38.6%
- viability, T/C [34]: 43.1%
- viability, T/C [35]: 27.5%
- viability, T/C [36]: 15.6%
